This is an account of results in patent publication US4338302A, “Herbicolin and microbiological method for the preparation thereof” (priority 1979, dated 1982).

Each structure is given as a SMILES string. Where a SMILES comes first, the peptide text is derived from it. [ ]: non-standard residue; d: D form. Phe(ol) = N[C@H](CO)Cc1ccccc1; Aib = CC(C)(N)C(=O)O

Assay [1] has as its system Neurospora crassa. The experiment in a line: Comparative plate diffusion test with membrane-modifying peptide antibiotics (Example 5 (2)). It counts as cell-based. Particulars: 10 μg/plate; in words. On the procedure: (§1) Respectively, 10 μg of the corresponding antibiotics is pipetted in the form of a methanolic solution on the filter plates and, after drying, placed on a nutrient substrate inoculated with Neurospora crassa spores.
(2) In the same manner, various membrane-modifying peptide antibiotics are comparison-tested with herbicolin A:
Trichotoxin A 40, Suzukazillin, Alamethicin F 50, and herbicolin A, respectively, 10 μg/plate.

In assay [2] the test system is Neurospora crassa. Kind of assay: Comparative plate diffusion test with other conventional antifungal substances (Example 5 (1)). The format is cell-based. The protocol:
as §1

`CC(=O)NC(C)(C)C(=O)N1CCC[C@H]1C(=O)NC(C)(C)C(=O)N[C@@H](C)C(=O)NC(C)(C)C(=O)N[C@@H](C)C(=O)N[C@@H](CCC(N)=O)C(=O)NC(C)(C)C(=O)N[C@H](C(=O)NC(C)(C)C(=O)NCC(=O)N[C@@H](CC(C)C)C(=O)NC(C)(C)C(=O)N1CCC[C@H]1C(=O)N[C@H](C(=O)NC(C)(C)C(=O)NC(C)(C)C(=O)N[C@@H](CCC(=O)O)C(=O)N[C@@H](CCC(N)=O)C(=O)N[C@H](CO)Cc1ccccc1)C(C)C)C(C)C` [Alamethicin] (Ac-[Aib]P[Aib]A[Aib]AQ[Aib]V[Aib]GL[Aib]PV[Aib][Aib]EQ[Phe(ol)]): the inhibition zone entry in the assay with Neurospora crassa [1] is given as “only a weak inhibition zone”.
With `COC1=CC(=O)C[C@@H](C)[C@]12Oc1c(Cl)c(OC)cc(OC)c1C2=O` [griseofulvin], the inhibition zone entry in the assay on Neurospora crassa [2] (10 μg on filter plate, 18 hours, 27° C.) is listed as “no inhibition zone”.
As to `C[C@@H]1[C@H](O)[C@@H](C)/C=C/C=C/C=C/C=C/C=C/C=C/C=C/[C@H](O[C@@H]2O[C@H](C)[C@@H](O)[C@H](N)[C@@H]2O)C[C@@H]2O[C@](O)(C[C@@H](O)C[C@@H](O)[C@H](O)CC[C@@H](O)C[C@@H](O)CC(=O)O[C@H]1C)C[C@H](O)[C@H]2C(=O)O` [amphotericin], the zone of inhibition at 10 µg/disc in the assay on Neurospora crassa [2] (Neurospora crassa, 18 h, read-out: inhibition zone) is approximately 10 mm.
